Reference: publication PMC11440508, “Dually Labeled Neurotensin NTS1R Ligands for Probing Radiochemical and Fluorescence-Based Binding Assays” (Journal of Medicinal Chemistry, 2024)

Legend:
NTS1R = NTS1R (Homo sapiens, UniProt P30989); assay: Flow cytometric (FC) association and dissociation kinetics, suspended CHO-hNTS1R cells; type: binding; conditions: FC (suspension); for koff: 23 °C, read-out: koff [min^–1] (converted); for kon: calculated from kobs, koff and ligand concentration, read-out: kon [min^–1 nM^–1] (converted)
Sequence of NTS1R (P30989 whole entry): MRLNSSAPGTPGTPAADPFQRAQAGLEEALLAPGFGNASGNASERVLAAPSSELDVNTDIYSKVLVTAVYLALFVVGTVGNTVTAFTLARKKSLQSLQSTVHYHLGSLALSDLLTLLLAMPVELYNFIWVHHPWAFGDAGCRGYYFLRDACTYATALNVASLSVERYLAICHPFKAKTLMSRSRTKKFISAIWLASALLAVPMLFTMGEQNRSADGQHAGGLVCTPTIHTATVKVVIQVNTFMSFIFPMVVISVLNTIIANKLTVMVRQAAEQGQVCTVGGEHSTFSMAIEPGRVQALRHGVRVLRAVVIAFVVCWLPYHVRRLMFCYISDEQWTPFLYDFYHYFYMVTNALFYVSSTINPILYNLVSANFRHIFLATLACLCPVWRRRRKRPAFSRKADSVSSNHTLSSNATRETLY
Experimental: Flow cytometry-based NTS1R binding studies were performed with intact CHO-hNTS1R (all kind of experiments) and HT-29 cells (only saturation binding) using a BD FACSCanto II (Becton Dickinson, Heidelberg, Germany), equipped with an argon laser (488 nm) and a red diode laser (640 nm), and a BD High Throughput Sampler (HTS unit) for microtiter plates. Saturation and competition binding experiments were performed in triplicate in 96-well polypropylene plates (Brand 701330, Wertheim, Germany) using the HTS unit for sample injection. Association and dissociation experiments were performed in duplicate in 5 mL polypropylene tubes (VWR, Radnor) using the standard injection port of the flow cytometer. The following gain settings for forward and sideward scatter were applied: FSC, 0 V; SSC, 252 V. Fluorescence was recorded using the PE-channel (excitation: 488 nm, emission: 585 ± 21) nm with a PMT gain of 330–400 V. For measurements using the HTS unit, 45 μL of the sample were injected with a speed of 1.5 μL/s. For measurements, requiring the use of the standard injection port, the medium flow rate ([…]) was used. Measurements were stopped after 30 s (HTS unit) or after counting of 500–3000 gated events (standard injection port).
Cells were seeded in T75 culture flasks 3–4 days (CHO-hNTS1R cells) or 5–6 days (HT-29 cells) prior to the experiment. On the day of the experiment, cells were detached by trypsinization, suspended in DPBS1 and centrifuged at 200g at rt for 5 min. […]
5 mL polypropylene tubes were prefilled with 2000 μL of cell suspension and DMSO/H2O 2:8 v/v (20 μL) were added (determination of total binding). […] Specific binding data, obtained by subtracting triplicate mean values of unspecific binding from triplicate mean values of total binding, were plotted against the time and analyzed by a three-parameter equation describing an exponential rise to a maximum (one-phase association, Y0 constrained to zero, GraphPad Prism 5) to yield the observed association rate constant kobs. […]
5 mL polypropylene tubes were prefilled with 2000 μL of cell suspension. […] After different periods of time (1–240 min), sample aliquots were measured by placing the tube in the injection port of the flow cytometer. Specific binding data, obtained by subtracting triplicate mean values of unspecific binding from triplicate mean values of total binding, were plotted against the time and analyzed by a three-parameter equation describing an incomplete monophasic exponential decline (one phase decay, GraphPad Prism 5) to obtain koff values. […]
The kon and Kd(kin) values were calculated as described for high-content imaging binding experiments.

[1] = Stability in human plasma/PBS 1:2 v/v; type: in vitro ADME; conditions: for % intact compound in plasma: 37 °C; for % intact compound in plasma / remaining at 24 h, 80 μM: 24 h
Experimental: The proteolytic stabilities of 13 and 18 were investigated in human blood plasma/PBS (136.9 mM NaCl, 2.68 mM KCl, 5.62 mM Na2HPO4, 1.09 mM NaH2PO4, and 1.47 mM KH2PO4, pH 7.4) 1:2 v/v according to a described procedure[38] with the following modifications: 5 mM stock solutions in EtOH/10 mM aqueous HCl 1:1 v/v were used for the addition of the peptides to plasma/PBS 1:2 v/v. As the RP-HPLC purity of 1-methyl-D-Trp, used as internal standard (IS), was <95%, the compound was purified by preparative HPLC to give a purity of >99%. The concentration of the peptides in plasma/PBS 1:2 v/v was 40 μM (recovery determination) or 80 μM (stability tests). Samples were analyzed using the same RP-HPLC system and conditions as described under Analytical HPLC with the following gradient: 0–6 min: acetonitrile/0.04% aqueous TFA 10:90–21:79, 6–12 min: 21:79–40:60, 12–13 min: 40:60–95:5, 13–16 min: 95:5 (isocratic). Data analysis was based on UV detection at 220 nm. Reference samples, representing 100% recovery, were prepared in quadruplicate. Recovery ratios were obtained by dividing the recovery of the peptide by the recovery of IS for each individual sample (n = 4). The obtained recoveries and the recovery ratios are summarized in Table S2, Supporting Information.

[2] = human blood plasma/PBS 1:2 v/v, pH 7.4, 37 °C, read-out: % intact compound in plasma

Structure (SMILES)	koff (NTS1R) [s⁻¹]	kon (NTS1R) [M⁻¹ s⁻¹]	% intact compound in plasma [1] [%]	remaining at 0.5 h, 80 μM ([1]; human blood plasma/PBS 1:2 v/v, pH 7.4, 37 °C, 30 min, read-out: % intact compound in plasma) [%]	remaining at 2 h, 80 μM [1, 2] [%]	remaining at 6 h, 80 μM [1, 2] [%]	remaining at 24 h, 80 μM [1, 2] [%]	remaining at 48 h, 80 μM [1, 2] [%]
CCC(=O)NCCCCNC(=O)N=C(N)NCCC[C@H](NC(=O)[C@@H]1CCCN1C(=O)[C@@H](NC(=O)CCc1cn(CCCNC(=O)c2ccc(-c3c4ccc(=[N+](C)C)cc-4oc4cc(N(C)C)ccc34)c(C(=O)[O-])c2)nn1)C1CCNCC1)C(=O)N[C@@H](CCCNC(=N)N)C(=O)N1CCC[C@H]1C(=O)N[C@@H](Cc1ccc(O)cc1)C(=O)N[C@H](C(=O)N[C@@H](CC(C)C)C(=O)O)[C@@H](C)CC [Compound 13, N^α-(3-(1-N-((1-Carboxylato-2-(6-(dimethylamino)-3-(dimethyliminio)-3H-xanthen-9-yl)phen-5-yl)1-oxomethyl)aminoprop-3-yl-1H-1,2,3-triazol-4-yl)propanoyl)-2-(piperidin-4-yl)-Gly-Pro-N^ω-[(4-(N-propanoyl)aminobutyl)aminocarbonyl]Arg-Arg-Pro-Tyr-Ile-Leu Tris(hydrotrifluoroacetate)]	0.000333	8e+06	> 50	> 99	> 99	> 99	86 ± 4	58 ± 5
CCC(=O)NCCCCNC(=O)NC(=N)NCCC[C@H](NC(=O)[C@@H]1CCCN1C(=O)[C@@H](NC(=O)CCc1cn(CCCNC(=O)CCC#Cc2ccc3c(c2)C(C)(C)C2=C4C=C5C6=[N+](CCC5OC4CCN23)c2ccc(S(=O)(=O)[O-])cc2C6(C)C)nn1)C1CCNCC1)C(=O)N[C@@H](CCCNC(=N)N)C(=O)N1CCC[C@H]1C(=O)N[C@H](C(=O)N[C@H](C(=O)N[C@@H](CC(C)C)C(=O)O)[C@@H](C)CC)C(C)(C)c1ccc(O)cc1 (stereo partly drawn) [Compound 18, N^α-(3-(N-(1-(8-Sulfonato-5,5,27,27-tetramethyl-16-oxa-20-aza-12-azoniaheptacyclo[15.11.0.03,15.04,12.06,11.020,28.021,26]octacosa-1(28),2,4(12),6(11),7,9,21(26),22,24-nonaen-24-yl)-5-oxopentyn-5-yl)-1-aminoprop-3-yl-1H-1,2,3-triazol-4-yl)propanoyl)-2-(piperidin-4-yl)-Gly-Pro-N^ω-[(4-(N-propanoyl)aminobutyl)aminocarbonyl]Arg-Arg-Pro-β,β-dimethyl-L-Tyr-Ile-Leu Tris(hydrotrifluoroacetate)]	0.0004	2.67e+06	> 50	–	95 ± 6	90 ± 6	82 ± 4	52 ± 4
